“And” between values parts separate entries of the source, which are not always exact repeats. Identical values can stand only once.
Tested on: Mus musculus
Settings: oral, drinking water
[1] = short-term, duration: 28 days, M, BALB/c, activity cage (locomotion events, 60 min) + Morris water maze (escape time, acquisition, day 5) + Morris water maze (platform crossing, …
[2] = short-term, duration: 28 days, M, BALB/c, elevated plus maze (time in open arms) + forced swim (immobility time, last 4 min) + forced swim (immobility time, total 6 min)
[3] = subchronic, duration: 8 weeks, M, Kunming, Y-maze (number of training runs to meet 90% learning standard)
[4] = subchronic, duration: 8 weeks, M, Kunming, open field (grid entry, 3 minutes)
[5] = subchronic, duration: 10 weeks, ICR, Y-maze (number of training runs to meet 90% learning standard)
[6] = subchronic, duration: 30 days, F, Swiss Albino, rotarod (latency to fall, 25 rpm)
[7] = subchronic, duration: 64 days, M, C57BL/6, formalin test (flinches, early phase, 10 min) + formalin test (flinches, late phase, 60 min) + formalin test (flinches/10 min, 60 min) + …

[F-].[Na+] [Sodium fluoride]
NOEL (developmental, M, Kunming, generation: F1, F1: activity chamber (ambulation events) + F1: activity chamber (rearing events) + F1: novel object test (adaptation phase memory index) + …): 18.4 mg/kg-day
LOEL (developmental, M, NMRI, generation: F1, F1: maze test (completion time, assessment 1) + F1: maze test (completion time, assessment 2)): 0.113 mg/day
NOEL (short-term, duration: 28 days, M, BALB/c, activity cage (locomotion events, 10 min) + activity cage (rearing events, 10 min) + activity cage (rearing events, 60 min) + elevated plus …): 1.16 mg/kg-day
LOEL [1]: 0.58 mg/kg-day
NOEL [1]: 0.23 mg/kg-day
LOEL [2]: 1.16 mg/kg-day
NOEL [2]: 0.58 mg/kg-day
NOEL (subchronic, duration: 8 weeks, M, Kunming, Y-maze (% of correct responses 24 hrs after mastering learning standard)): 1.16 mg/kg-day
LOEL [3]: 0.58 mg/kg-day and 0.7 mg/kg-day
NOEL [3]: 0.12 mg/kg-day and 0.35 mg/kg-day
NOEL (subchronic, duration: 8 weeks, M, Kunming, open field (grid entry, 1 minute) + open field (rearing events) + open field (standing against wall events) + Y-maze (percent correct …): 1.39 mg/kg-day
LOEL [4]: 1.39 mg/kg-day
NOEL [4]: 0.7 mg/kg-day
NOEL (subchronic, duration: 10 weeks, ICR, Y-maze (% of correct responses 24 hrs after mastering learning standard)): 1.19 mg/kg-day
LOEL [5]: 1.19 mg/kg-day
NOEL [5]: 0.59 mg/kg-day
NOEL (subchronic, duration: 30 days, F, Swiss Albino, elevated plus maze (time to move from open to closed arm, trial 1) + open field (fecal matter) + open field (grooming time) + open field (…): 24.5 mg/kg-day
LOEL (subchronic, duration: 30 days, F, Swiss Albino, elevated plus maze (time to move from open to closed arm, trial 2) + forced swim (immobility time) + motor coordination (akinesia, latency …): 12.3 mg/kg-day
LOEL (subchronic, duration: 30 days, F, Swiss Albino, maze test (latency) + motor coordination (akinesia, latency time) + motor coordination (catalepsy, latency time) + swim test (total swim …): 14.7 mg/kg-day
LOEL [6]: 24.5 mg/kg-day
NOEL [6]: 12.3 mg/kg-day
LOEL (subchronic, duration: 64 days, M, C57BL/6, Von Frey hairs test (relative frequency of paw withdrawal)): 5.79 mg/kg-day
LOEL [7]: 11.6 mg/kg-day
NOEL [7]: 5.79 mg/kg-day
NOEL (subchronic, duration: 64 days, M, C57BL/6, formalin test (licking time, late phase, 60 min) + formalin test (licking time/10 min, 60 min) + open field (total distance moved, 1 hr) + …): 11.6 mg/kg-day

From EPA's ToxValDB 9.5
